Experimental data as given in patent publication US20250025488A1, “NUCLEIC ACIDS FOR INHIBITING EXPRESSION OF TMPRSS6 AND IRON CHELATORS” (SILENCE THERAPEUTICS GMBH, priority 2018, published 2025).
Oligonucleotides are written 5' to 3', each unit as a sugar letter and its base; * is a phosphorothioate linkage, no mark a phosphodiester; rarer units and linkages stand in square brackets, end groups in braces. Plain capitals give the bases only. m = 2'-O-methyl; f = 2'-fluoro

What was measured:
TMPRSS6 mRNA [1] = experiment: Reduction of TMPRSS6 mRNA expression by different siRNAs in Hep3B cells (20 nM, 96-well); assay type: cell-based, human; conditions: 20 nM siRNA + 1 μg/ml AtuFECT, two days after transfection, TMPRSS6 mRNA normalized to ApoB, relative to untreated cells
Protocol: 8000 cells per well were plated in 96-well plates. The following day cells were transfected with 20 nM siRNA and 1 μg/ml AtuFECT. Two days after transfection cells were lysed and TMPRSS6 mRNA levels were determined by q-RT-PCR. TMPRSS6 mRNA levels were normalized to expression levels of the house keeping gene ApoB. An siRNAs against Luciferase was used as non targeting control.

TMPRSS6 mRNA [2] = experiment: Dose-response of siRNAs against TMPRSS6 in Hep3B cells; assay type: cell-based, human; conditions: siRNA 100 nM-0.03 nM + 1 μg/ml AtuFECT, two days after transfection, TMPRSS6 mRNA normalized to ApoB, from dose-response curves FIG. 35; for Max inhibition: relative to 100 nM Luciferase-control siRNA
Protocol: 8000 cells per well were plated in 96-well plates. The following day cells were transfected with siRNA in indicated concentrations (100 nM-0.03 nM) and 1 μg/ml AtuFECT. Two days after transfection cells were lysed and TMPRSS6 mRNA levels were determined by q-RT-PCR. TMPRSS6 mRNA levels were normalized to expression levels of the house keeping gene ApoB. Average inhibition and standard deviation of triplicate values relative to cells treated with 100 nM of a non-targeting Luciferase-control siRNA are shown in FIG. 35.

[3] = molecular target: T1, Asialoglycoprotein receptor (ASGP-R) (Homo sapiens, UniProt P07306+P07307); conditions: higher affinity; cited from earlier work
T1 sequence (P07306 1-291): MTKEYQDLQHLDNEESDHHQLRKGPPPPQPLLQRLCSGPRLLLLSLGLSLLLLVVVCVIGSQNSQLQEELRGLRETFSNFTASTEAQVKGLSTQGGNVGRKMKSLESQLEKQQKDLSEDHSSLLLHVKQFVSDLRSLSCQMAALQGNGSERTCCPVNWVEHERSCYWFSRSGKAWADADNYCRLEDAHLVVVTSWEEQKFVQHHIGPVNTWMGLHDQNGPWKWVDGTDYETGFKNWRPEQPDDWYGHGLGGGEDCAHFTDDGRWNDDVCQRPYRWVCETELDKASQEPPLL
T1 sequence (P07307 1-311): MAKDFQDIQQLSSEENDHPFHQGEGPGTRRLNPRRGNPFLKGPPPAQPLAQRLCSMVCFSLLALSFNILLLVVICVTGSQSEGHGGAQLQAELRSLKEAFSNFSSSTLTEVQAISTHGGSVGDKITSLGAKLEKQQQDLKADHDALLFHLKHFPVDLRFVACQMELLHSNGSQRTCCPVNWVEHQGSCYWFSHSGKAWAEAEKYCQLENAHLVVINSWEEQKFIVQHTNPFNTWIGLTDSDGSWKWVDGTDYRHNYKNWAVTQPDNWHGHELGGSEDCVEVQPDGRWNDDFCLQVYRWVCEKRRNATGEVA

TMPRSS6 mRNA [4] = experiment: Dose response of TMPRSS6 nucleic acids for inhibition of TMPRSS6 expression in human Hep3B cells; assay type: cell-based; conditions: 30-0.003 nM nucleic acid (Luciferase 30 and 10 nM) + 1 μg/ml AtuFECT, two days, normalized to PTEN
Protocol: Cells were plated at a cell density of 150,000 cells per 6 well dish. The following day cells were transfected with 1 μg/ml AtuFECT (50:50 formulation of cationic lipid Atufect01 and fusogenic lipid DPhyPE) and different amounts of TMPRSS6 nucleic acids (30; 10; 3; 1; 0.3; 0.1, 0.003 nM, respectively) as depicted by the X-axis of the graph in FIG. 2. For non targeting control samples, cells were transfected with 30 and 10 nM nucleic acid for Luciferase. Two days after the transfection cells were lysed and mRNA levels were determined by q-RT-PCR. TMPRSS6 mRNA levels were normalized to the expression levels of the house keeping gene PTEN. […] Sequences of RNAi molecules are depicted in Table 1.

Row | Compound | kd at 20 nM as shown in FIG. 34 (TMPRSS6 mRNA [1]) | IC50 (TMPRSS6 mRNA [2]) | Max inhibition (TMPRSS6 mRNA [2]) | Affinity of ASGP-R for GalNAc relative to D-Gal [3] | TMPRSS6 mRNA expression (TMPRSS6 mRNA [4])
1 | TMPRSS-SR-27: siRNA against TMPRSS6, SEQ ID NO 177/178 (chain 1 mAfGmUfAmGfUmAfGmCfUmGfGmGfGmAfAmGfUmA; chain 2 fUmAfCmUfUmCfCmCfCmAfGmCfUmAfCmUfAmCfU) | 84% | 2.8 nM | 94% |  | 
2 | CC(=O)N[C@H]1C(O)O[C@H](CO)[C@H](O)[C@@H]1O (stereo partly drawn) [N-Acetyl-D-Galactosylamine (GalNAc), 2-(Acetylamino)-2-deoxy-D-galactopyranose] |  |  |  | 50 fold | 
3 | TMPRSS6-hcm9: siRNA, SEQ ID NO 17/18, alternating 2′OMe/2′F; TMP01 = strands TMPJH01A/TMPJH01B, same chemistry (chain 1 AACCAGAAGAAGCAGGUGA; chain 2 UCACCUGCUUCUUCUGGUU; chain 1: sugars from the 5' end mfmfmfmfmfmfmfmfmfm, backbone not given here; chain 2: sugars from the 5' end fmfmfmfmfmfmfmfmfmf, backbone not given here; further chemistry not fully specified) |  |  |  |  | highest reduction of TMPRSS6 mRNA expression
4 | TMPRSS6-hcmr-24: siRNA against TMPRSS6, SEQ ID NO 209/210 (chain 1 mCfUmCfAmCfCmUfUmGfAmAfGmGfAmCfAmCfCmU; chain 2 fAmGfGmUfGmUfCmCfUmUfCmAfAmGfGmUfGmAfG) | 70% | 0.8 nM | 73% |  | 
5 | TMPRSS-hc-22: siRNA against TMPRSS6, SEQ ID NO 205/206 (chain 1 mAfGmAfUmCfCmUfGmGfGmAfGmAfAmGfUmGfGmC; chain 2 fGmCfCmAfCmUfUmCfUmCfCmCfAmGfGmAfUmCfU) | 73% | 8.1 nM | 99% |  | 
6 | TMPRSS-hcm-25: siRNA against TMPRSS6, SEQ ID NO 211/212 (chain 1 AGUUUCUCUCAUCCAGGCC; chain 2 GGCCUGGAUGAGAGAAACU; chain 1: sugars from the 5' end mfmfmfmfmfmfmfmfmfm, backbone not given here; chain 2: sugars from the 5' end fmfmfmfmfmfmfmfmfmf, backbone not given here) | 85% | 4.6 nM | 87% |  | 
7 | TMPRSS-hc-16: siRNA against TMPRSS6, SEQ ID NO 195/196 (chain 1 mUfAmUfUmCfCmAfAmAfGmGfGmCfAmGfCmUfGmA; chain 2 fUmCfAmGfCmUfGmCfCmCfUmUfUmGfGmAfAmUfA) | 91% | 7.7 nM | 100% |  | 
8 | TMPRSS-SR-16: siRNA against TMPRSS6, strands hcTMP-SR16-A/B, SEQ ID NO 158 (as printed)/160 (chain 1 CUCAGCACCCCGUACUUCC; chain 2 UCAGCACCCCGUACUUCCC; listed as RNA, chemistry not fully specified) | 88% | 8.4 nM | 100% |  | 
9 | TMPRSS-SR-21: siRNA against TMPRSS6, SEQ ID NO 167/168 (chain 1 mAfGmCfUmGfGmGfGmAfAmGfUmAfCmGfGmGfGmU; chain 2 fAmCfCmCfCmGfUmAfCmUfUmCfCmCfCmAfGmCfU) | 92% | 5.8 nM | 100% |  | 
10 | TMPRSS-hc-17: siRNA against TMPRSS6, SEQ ID NO 197/198 (chain 1 AUCUUCUGGGCUUUGGCGG; chain 2 CCGCCAAAGCCCAGAAGAU; chain 1: sugars from the 5' end mfmfmfmfmfmfmfmfmfm, backbone not given here; chain 2: sugars from the 5' end fmfmfmfmfmfmfmfmfmf, backbone not given here) | 79% | 2.4 nM | 82% |  | 
11 | TMPRSS-hc-19: siRNA against TMPRSS6, SEQ ID NO 201/202 (chain 1 mGfAmAfUmAfGmAfCmGfGmAfGmCfUmGfGmAfGmU; chain 2 fAmCfUmCfCmAfGmCfUmCfCmGfUmCfUmAfUmUfC) | 89% | 6.1 nM | 100% |  | 
12 | TMPRSS-SR-5: siRNA against TMPRSS6, strands hcTMP-SR5-A/B, SEQ ID NO 141/142 (chain 1 mGfGmUfGmCfUmGfAmGfGmAfCmGfCmCfCmUfGmG; chain 2 fCmCfAmGfGmGfCmGfUmCfCmUfCmAfGmCfAmCfC) | 85% | 8.4 nM | 100% |  | 
13 | TMPRSS-hc-23: siRNA against TMPRSS6, SEQ ID NO 207/208 (chain 1 CUGUUCUGGAUCGUCCACU; chain 2 AGUGGACGAUCCAGAACAG; chain 1: sugars from the 5' end mfmfmfmfmfmfmfmfmfm, backbone not given here; chain 2: sugars from the 5' end fmfmfmfmfmfmfmfmfmf, backbone not given here) | 70% | 4.6 nM | 83% |  | 
14 | TMPRSS-hc-18: siRNA against TMPRSS6, SEQ ID NO 199/200 (chain 1 UUUUCUCUUGGAGUCCUCA; chain 2 UGAGGACUCCAAGAGAAAA; chain 1: sugars from the 5' end mfmfmfmfmfmfmfmfmfm, backbone not given here; chain 2: sugars from the 5' end fmfmfmfmfmfmfmfmfmf, backbone not given here) | 90% | 4.6 nM | 95% |  | 
15 | TMPRSS-hcr-26: siRNA against TMPRSS6, SEQ ID NO 213/214 (chain 1 GUACCCUAGGAAAUACCAG; chain 2 CUGGUAUUUCCUAGGGUAC; chain 1: sugars from the 5' end mfmfmfmfmfmfmfmfmfm, backbone not given here; chain 2: sugars from the 5' end fmfmfmfmfmfmfmfmfmf, backbone not given here) | 98% | 3.5 nM | 100% |  | 
16 | Luciferase nucleic acid: non targeting control nucleic acid for Luciferase, SEQ ID NO 31/32 (chain 1 UCGAAGUAUUCCGCGUACG; chain 2 CGUACGCGGAAUACUUCGA; listed as RNA, chemistry not given here) [reference compound] |  |  |  |  | did not affect TMPRSS6 mRNA levels
